Experimental data as given in patent US20230382895A1, “CRYSTALLINE FORM III OF MELANOCORTIN RECEPTOR AGONIST COMPOUND AND PREPARATION METHOD THEREFOR” (LG CHEM, LTD., priority 2020, published 2023).
Entries after “also recorded” stand apart in the source; their conditions may differ. Structures can show the parent of a compound that is named as a salt.

Assay: Stability assessment by HPLC after storage under accelerated (40° C., 75% RH, open) or harsh (80° C., sealed) condition
Assay type: physicochemical
Settings: for Stability (HPLC), Open AOC: open state, accelerated condition (40° C., 75% RH); for Stability (HPLC), Closed STR: sealed state, harsh condition, oven at 80° C.
Protocol: About 10-30 mg of the sample was stored for 4 weeks in an open state under the accelerated condition (40° C., 75% RH) or in a sealed state under the harsh condition in an oven at 80° C. [table]

SMILES: CC(C)C(=O)N([C@H]1C[C@@H](C(=O)N2CCOCC2)N(C(=O)[C@@H]2CN(C(C)(C)C)C[C@H]2c2ccc(Cl)cc2)C1)[C@H]1CC[C@@H](C)CC1 [Example 1, Is7-((3S,5S)-1-((3S,4R)-1-(tert-butyl)-4-(4-chlorophenyl)pyrrolidine-3-carbonyl)-5-(morpholine-4-carbonyl)pyrrolidin-3-yl)-N-((is, 4R)-4-methylcyclohexyl) isobutyramide hydrochloride]
- Chemical stability for 4 weeks (4 weeks, accelerated condition (40° C., 75% RH) and harsh condition (80° C.), listed as crystalline form III, hydrochloride): showed chemical stability; also recorded: exhibited chemical stability
- Stability (HPLC), Initial (Initial, before storage, in % (unit assumed)): 99.68
- Stability (HPLC), Open AOC (Week 2, in % (unit assumed)): 89.27
- Stability (HPLC), Closed STR (Week 2, in % (unit assumed)): 99.11
- Stability (HPLC), Open AOC (Week 4, in % (unit assumed)): 99.26
- Stability (HPLC), Closed STR (Week 4, in % (unit assumed)): 98.76
